± gives the expanded uncertainty stated by the source.
details: Crystal; Heating/Cooling curves

| SMILES | Triple point temperature |
| --- | --- |
| O=C=O [carbon dioxide] | 216.52 ± 1 K |
| [N-]=[N+]=O [nitrous oxide] | 181.99 ± 1 K |
| FC(F)F [trifluoromethane] | 118.02 ± 1 K |
